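How tested: cells in 96-well plates exposed to compound for 48 hours at five concentrations. GI50 is the concentration that inhibits growth by half. TGI: concentration producing complete growth inhibition.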
How the values were obtained:
Assay in all cases: growth of human tumour cells (NCI), 48 h
[1] = test system: A549 NSCLC
[2] = test system: MCF7 breast
[3] = test system: NCI-H226 lung
[4] = test system: OVCAR-4 ovarian
[5] = test system: OVCAR-8 ovarian
[6] = test system: RPMI-8226 leukemia
[7] = test system: LOX IMVI melanoma
[8] = test system: MDA-MB-231 breast
[9] = test system: NCI-H460 lung
[10] = test system: SF-539 CNS

Structure (SMILES)	GI50 [1]	TGI [1]	GI50 [2]	TGI [2]	GI50 [3]	TGI [3]	GI50 [4]	TGI [4]	GI50 [5]	TGI [5]	GI50 [6]	TGI [6]	GI50 [7]	TGI [7]	GI50 [8]	TGI [8]	GI50 [9]	TGI [9]	GI50 [10]	TGI [10]
COC(=O)c1cncc(/C=C/c2c(C)cc(O)cc2C)c1	> 17.5 µM	> 25 µM	11.5 µM	> 18.7 µM	> 12.7 µM	> 25 µM	8.11 µM	> 25 µM	17.9 µM	> 25 µM	9.03 µM	> 25 µM	7.41 µM	> 18 µM	7.19 µM	> 23 µM	8.95 µM	> 25 µM	11 µM	> 25 µM
COc1cc(/C=C/C(=O)c2cccc(-n3cc(-c4ccc(Cl)cc4)[nH]c3=O)c2)cc(OC)c1OC	85.2 µM	> 100 µM	1.74 µM	5.75 µM	> 100 µM	> 100 µM	11.4 µM	38 µM	3.85 µM	> 100 µM	3.92 µM	> 100 µM	1.72 µM	3.2 µM	13.8 µM	48.6 µM	3.74 µM	11.8 µM	3.49 µM	14.3 µM
CCC1(O)C(=O)OCc2c1cc1n(c2=O)Cc2cc3c(NC(=O)CN)cccc3nc2-1 (configuration not stated)	1.2 µM	> 67.7 µM	0.181 µM	> 43.2 µM	0.385 µM	4.29 µM	7.53 µM	36.7 µM	0.557 µM	30.2 µM	1.69 µM	40.3 µM	0.146 µM	4.08 µM	58.1 µM	> 100 µM	0.122 µM	3.88 µM	0.11 µM	0.821 µM
C/C(=C\c1cnc(C)s1)[C@@H]1C[C@@H]2O[C@@H]2CCC[C@H](C)[C@H](O)[C@@H](C)C(=O)C(C)(C)[C@@H](O)CC(=O)O1	< 0.01 µM	> 100 µM	< 0.01 µM	> 100 µM		> 100 µM		> 100 µM	< 0.01 µM	> 100 µM	< 0.01 µM	> 100 µM	< 0.01 µM	> 100 µM	< 0.0148 µM	> 100 µM	< 0.01 µM	> 100 µM	< 0.01 µM	> 100 µM
COc1cc2nc(-c3cc(F)ccc3O)nc(N[C@@H]3CNC[C@H]3C(C)(C)O)c2cc1OC	1.74 µM	3.51 µM	1.51 µM	3.07 µM	1.48 µM	4.38 µM	1.88 µM	4.65 µM	1.63 µM	3.07 µM	2.15 µM	5.14 µM	1.46 µM	2.87 µM	1.23 µM	2.8 µM	1.83 µM	3.47 µM	1.55 µM	3 µM
COC(=O)c1cc2c(cc1Cl)SC1=NN(C)C(N(C)C)N1S2(=O)=O (configuration not stated)	> 100 µM	> 100 µM	> 100 µM	> 100 µM	> 100 µM	> 100 µM	> 100 µM	> 100 µM	> 100 µM	> 100 µM	> 100 µM	> 100 µM	> 100 µM	> 100 µM	> 100 µM	> 100 µM	> 100 µM	> 100 µM	> 100 µM	> 100 µM
C(=N/N(Cc1ccccc1)Cc1ccccc1)/c1ccccc1	> 100 µM	> 100 µM	42.9 µM	> 100 µM	> 100 µM	> 100 µM	> 100 µM	> 100 µM	> 100 µM	> 100 µM	51.8 µM	> 100 µM	> 100 µM	> 100 µM	> 100 µM	> 100 µM	> 100 µM	> 100 µM	> 100 µM	> 100 µM
COC1=C(OC)C(=O)C(SC/C=C(\C)CCCC(C)CCCC(C)CCCC(C)C)=CC1=O (configuration not stated)	2.83 µM	> 100 µM	0.455 µM	> 26.9 µM	2.75 µM	> 100 µM	1.32 µM	> 100 µM	0.456 µM	> 100 µM	0.126 µM	2.88 µM	0.488 µM	> 100 µM	1.92 µM	8.78 µM	0.95 µM	> 32.7 µM	1.41 µM	> 92.2 µM
COC1C(N)C(OC2C(Oc3cccc4c(O)c5c(=O)oc6ccc(C)c7c(=O)oc(c34)c5c67)OC(C)C(O)C2(C)O)OC(C)C1O (configuration not stated)		1.49 µM		1.31 µM		0.169 µM		2.28 µM		0.212 µM		12.4 µM		0.28 µM		1.74 µM		0.139 µM		0.208 µM
c1ccc2c(c1)Nc1ccncc1S2	26.3 µM	> 100 µM	28.7 µM	> 100 µM	17.1 µM	> 100 µM	23.7 µM	> 100 µM	21.6 µM	> 100 µM	17 µM	78.1 µM	23.8 µM	> 100 µM	26.9 µM	> 100 µM	18.2 µM	49.7 µM	19.7 µM	67.1 µM
O=C(CC1(O)C(=O)N(Cc2ccccc2)c2ccccc21)c1ccc(C(=O)NCC2CCC3(CC2)OOC2(CCCCC2)OO3)cc1 (configuration not stated)	0.201 µM	0.458 µM	2.43 µM	10.5 µM	3.5 µM	10.8 µM	1.95 µM	5.35 µM	0.287 µM	0.817 µM	0.886 µM	3.43 µM	0.154 µM	0.31 µM	1.15 µM	2.95 µM	1.29 µM	3.51 µM	0.399 µM	1.04 µM
CC1=C(CC(=O)c2cccc([N+](=O)[O-])c2)C(=O)c2ccccc2C1=O	15.6 µM	36.2 µM	1.41 µM	3.65 µM	18.7 µM	46.5 µM	1.86 µM	7 µM	5.87 µM	48.9 µM	4.42 µM	37.4 µM	2.22 µM	8.31 µM	1.89 µM	12.7 µM	18.2 µM	> 100 µM	3.02 µM	10.9 µM
COC(=O)[C@H]1CCCN1C(=O)[C@H]1CCCN1C(=O)[C@@H](Cc1c[nH]c2ccccc12)NC(=S)Nc1cc(C(F)(F)F)cc(C(F)(F)F)c1	1.83 µM	4.52 µM	2.16 µM	5.35 µM	3.08 µM	11.7 µM	2.86 µM	12.9 µM	1.98 µM	3.94 µM	2.34 µM	6.38 µM	1.65 µM	3.05 µM	1.68 µM	3.09 µM	1.96 µM	4.1 µM	1.92 µM	3.61 µM
O=C(Nc1cccc(-n2cc(-c3ccncc3)c(-c3cc(O)cc(Cl)c3)n2)c1)c1cc(C(F)(F)F)cc(C(F)(F)F)c1	2.62 µM	> 100 µM	2.86 µM	> 100 µM	16.1 µM	> 100 µM	8.53 µM	> 100 µM	3.58 µM	> 100 µM	2.5 µM	12.7 µM	3.29 µM	13.7 µM	1.42 µM	3.32 µM	3.04 µM	> 100 µM	5.01 µM	51.7 µM
C#CCNC(=O)[C@H](CC)[C@H]1CC[C@H](C)[C@H]([C@@H](C)[C@H](O)[C@H](C)C(=O)[C@H](CC)C2O[C@]3(C=CC(=O)[C@]4(CC[C@@](C)([C@H]5CC[C@](O)(CC)[C@H](C)O5)O4)O3)[C@H](C)C[C@@H]2C)O1 (some centres not stated)	2.61 µM	11.2 µM	2.67 µM	12.2 µM	2.94 µM	22.6 µM	2.91 µM	> 100 µM	2.96 µM	35.8 µM	1.77 µM	4.9 µM	2.06 µM	4.83 µM	1.92 µM	5.14 µM	2.55 µM	6.94 µM	1.75 µM	3.36 µM
CN(CCNCc1ccccn1)CCNCc1ccccn1	2.95 µM	8.07 µM	3.08 µM	10.9 µM	1.92 µM	4.2 µM	2.85 µM	8.99 µM	2.99 µM	7.62 µM	3.41 µM	67.6 µM	2.48 µM	6.88 µM	2.56 µM	5.93 µM	3.16 µM	9.54 µM	2.06 µM	5.33 µM
Nc1nc(Nc2ccccc2SSc2ccccc2Nc2nc(N)nc(C(Cl)(Cl)Cl)n2)nc(C(Cl)(Cl)Cl)n1	2.95 µM	10.8 µM	6.46 µM	33 µM	3.49 µM	15.9 µM	6.86 µM	45.1 µM	5.38 µM	24.7 µM	2.94 µM	10.2 µM	1.68 µM	3.13 µM	3.13 µM	10.7 µM	4 µM	14.7 µM	11.2 µM	24.7 µM
N#CCCN1C/C(=C/c2ccc(Cl)cc2)C(=O)/C(=C/c2ccc(Cl)cc2)C1	1.89 µM	10.4 µM	0.42 µM	2.81 µM	2.35 µM	8.48 µM	3.01 µM	15.7 µM	0.543 µM	11.6 µM	0.255 µM	0.795 µM	0.303 µM	1.13 µM	2.01 µM	7.44 µM	0.707 µM	2.52 µM	1.32 µM	2.74 µM
c1ccc(CCc2cccnc2)nc1		> 100 µM		> 100 µM		> 100 µM		> 100 µM		> 100 µM		> 100 µM		> 100 µM		> 100 µM		> 100 µM		> 100 µM
OCCNC1c2cc(Cl)ccc2-c2c(Cl)cc(Cl)cc21 (configuration not stated)		> 100 µM		53.8 µM		> 100 µM		> 100 µM		> 100 µM		> 100 µM		> 100 µM		98.9 µM		63.4 µM		> 100 µM
CC1OC(OC2C(O)CC(OC3C(O)CC(OC4CCC5(C)C(CCC6C5CC(O)C5(C)C(C7=CC(=O)OC7)CCC65O)C4)OC3C)OC2C)CC(O)C1O (configuration not stated)	0.0187 µM	0.0356 µM	0.0436 µM	0.196 µM	0.137 µM	0.266 µM	0.0347 µM	0.139 µM	0.0566 µM	0.196 µM	0.0921 µM		0.0428 µM	0.164 µM	0.205 µM	0.616 µM	0.0305 µM	0.088 µM	0.0427 µM	0.15 µM
COC1C(O)C(CO)OC(OC2C(O)COC(OC3C(C)OC(OC4C(O[C@H]5CC[C@@]6(C)C(CC=C7[C@H]6CCC68C(=O)O[C@@](C)(CCCC(C)C)[C@H]6[C@@H](OC(C)=O)C[C@@]78C)C5(C)C)OCC(OS(=O)(=O)O)C4O)C(OC4OCC(O)C(O)C4O)C3O)C2O)C1O (some centres not stated)	0.0568 µM	0.209 µM	0.166 µM	0.431 µM	0.192 µM	0.484 µM	0.147 µM	0.433 µM	0.165 µM	0.43 µM	0.163 µM	0.402 µM	0.164 µM	0.357 µM	0.103 µM	0.325 µM	0.315 µM	1.45 µM	0.215 µM	0.606 µM
